# Laboratory results from patent US20240116985A1, “STAPLED PEPTIDES AND METHODS THEREOF” (priority 2020, published 2024).
# Where “and” joins values, the source holds several entries; their conditions need not be identical. Equal values may be shown once. Read-outs that look alike come from different tables or passages of the source.
# Tests used:
# [1] = molecular target: T1, beta-catenin/TCF4 engagement (Homo sapiens, UniProt P35222); assay: Nano-BRET target engagement assay (B-cat-Halo & TCF4-Luc in HEK293 cells); format: cell-based
# T1 construct: expressed in transfected cells; host or cells: HEK293
# T1 sequence (P35222 1-781): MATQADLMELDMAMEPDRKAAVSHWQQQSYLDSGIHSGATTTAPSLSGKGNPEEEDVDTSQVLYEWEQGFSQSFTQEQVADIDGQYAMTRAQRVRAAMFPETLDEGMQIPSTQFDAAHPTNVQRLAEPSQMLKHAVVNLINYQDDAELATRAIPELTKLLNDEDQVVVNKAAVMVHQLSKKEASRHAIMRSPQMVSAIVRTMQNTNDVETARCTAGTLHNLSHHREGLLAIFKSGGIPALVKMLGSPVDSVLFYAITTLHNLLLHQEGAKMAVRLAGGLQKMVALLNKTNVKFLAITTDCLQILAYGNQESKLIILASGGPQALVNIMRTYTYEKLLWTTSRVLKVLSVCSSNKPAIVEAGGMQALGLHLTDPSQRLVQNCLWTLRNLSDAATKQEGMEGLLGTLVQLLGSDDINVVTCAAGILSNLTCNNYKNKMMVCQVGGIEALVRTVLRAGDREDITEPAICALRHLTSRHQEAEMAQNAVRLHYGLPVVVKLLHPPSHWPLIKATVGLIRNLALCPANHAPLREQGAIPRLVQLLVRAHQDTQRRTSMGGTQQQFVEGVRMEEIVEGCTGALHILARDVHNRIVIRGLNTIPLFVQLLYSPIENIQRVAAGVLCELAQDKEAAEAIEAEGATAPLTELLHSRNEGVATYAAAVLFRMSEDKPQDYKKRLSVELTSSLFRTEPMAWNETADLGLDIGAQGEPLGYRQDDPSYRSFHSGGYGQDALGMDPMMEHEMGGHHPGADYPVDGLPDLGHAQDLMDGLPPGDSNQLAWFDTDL
# [2] = molecular target: T2, full-length beta-Catenin (Uniprot ID P35222) (Homo sapiens, UniProt P35222); assay: Fluorescence polarization IC50 (beta-catenin / 5FAM-TCF4 10-53 competition); format: binding
# T2 construct: 10 nM full-length beta-Catenin (Uniprot ID P35222)
# T2 sequence (P35222 1-781): T1 sequence (P35222 1-781)
# [3] = Solubility in PBS; format: physicochemical
# Method in brief: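 Solubility is derived from HPLC peak areas: the ratio of the PBS supernatant peak to a 50 μM DMSO peptide peak, times 50 uM.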
# [4] = CHI Log D procedure; format: physicochemical; conditions: for CHI Log D: pH 7.4; for chromatographic logD: pH 7.4, CHI Log D
# [5] = tested on: TCF/LEF luciferase Reporter in DLD1 cells; assay: TCF reporter assay (DLD1 TCF/LEF luciferase reporter, Bright-Glo); format: cell-based; conditions: for DLD1 TCF c2 BrightGlo % Inhibition: replicates
# Method in brief: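 DLD1 cells stably carrying a TCF/LEF luciferase reporter were plated at 5000 cells/well in RPMI + 4% FBS and treated overnight with a 1:2 compound dilution series. Bright-Glo luminescence read on day 3; viability by CellTiter-Glo. Absolute IC50 determined.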
# [6] = absolute IC50, read-out: NanoBRET Abs IC50
# [7] = absolute IC50, read-out: DLD1 reporter assay Abs IC50
# [8] = read-out: DLD1 4% Abs IC50, DLD1 4%
SMILES,"IC50 [1, 6] [µM]",IC50 ([1]; read-out: NanoBRET Abs IC50) [µM],IC50 ([2]; read-out: beta-Catenin FP IC50) [nM],Solubility [3] [µM],CHI Log D [4],"IC50 [5, 7] [µM]","IC50 [5, 8] [µM]",IC50 ([1]; read-out: NanoBRET IC50) [µM],Solubility ([3]; Solubility (uM)) [µM],chromatographic logD [4],other results
"CC(=O)N1CCC[C@]12CC=CCCCC1(CCCC=CCCCCCC[C@@](C)(C(=O)N[C@@H](Cc3ccccc3Cl)C(=O)N[C@@H](Cc3csc4ccccc34)C(=O)N[C@@H](CCO)C(N)=O)NC(=O)[C@H](CO)NC(=O)[C@H](Cc3ccccc3)NC(=O)[C@H](C)NC(=O)[C@H](C)NC(=O)[C@H](CN(CC(=O)O)CC(F)(F)F)NC(=O)[C@H](CC(=O)O)NC1=O)NC(=O)[C@H](CC(C)(C)C)NC(=O)[C@H](CC(=O)O)NC2=O (single isomer, unassigned) [I-999, Ac-PL3-Asp-Npg-B5-Asp-TfeGA-Ala-Ala-Phe-Ser-S8-2C1F-BztA-Hse-NH2]",26.3,26.3,26,30,2.941,11.1,5.6,,,,"IC50 ([2]; fluorescence polarization, beta-catenin, read-out: FP EC50): 26 nM; DLD1 TCF c2 BrightGlo % Inhibition ([5]; first dose = 20 uM (plate map), 20 µM): 63.2% and 71.4% and 68.9%; DLD1 TCF c2 BrightGlo % Inhibition ([5]; 0.625 µM): 7.7% and 8.8% and 6.4%; DLD1 TCF c2 BrightGlo % Inhibition ([5]; 1.25 µM): 1.7% and 8.0% and 4.0%; DLD1 TCF c2 BrightGlo % Inhibition ([5]; 2.5 µM): 14.3% and 11.9% and 4.4%; DLD1 TCF c2 BrightGlo % Inhibition ([5]; 10 µM): 42.0% and 49.2% and 49.7%; DLD1 TCF c2 BrightGlo % Inhibition ([5]; third dose = 5 uM (plate map), 5 µM): 18.2% and 32.5% and 23.9%"
"CC(=O)N1CCC[C@]12CC=CCCCC1(CCCC=CCCCCCC[C@@](C)(C(=O)N[C@@H](Cc3ccccc3)C(=O)N[C@@H](Cc3csc4ccccc34)C(=O)N[C@@H](CCC(N)=O)C(N)=O)NC(=O)[C@H](CCC(N)=O)NC(=O)[C@H](Cc3ccccc3)NC(=O)[C@H](C)NC(=O)[C@H](C)NC(=O)[C@H](CCC(=O)O)NC(=O)[C@H](CC(=O)O)NC1=O)NC(=O)[C@H](CC(C)C)NC(=O)[C@H](CC(=O)O)NC2=O (stereo partly drawn) [I-505, Ac-PL3-Asp-Leu-B5-Asp-Glu-Ala-Ala-Phe-Gln-S8-Phe-BztA-Gln-NH2]",4.9,,,50,2.259,,,5.6,,,"IC50 ([1]; Abs IC50, read-out: NanoBRET Abs IC50): 4.9 µM; IC50 ([2]; fluorescence polarization, read-out: beta-Catenin FP IC50): 23 nM; IC50 ([2]; read-out: FP EC50): 23 nM; IC50 ([5]; Abs IC50, read-out: DLD1 reporter assay Abs IC50): 10.8 µM; IC50 ([5]; read-out: DLD1 4% Abs IC50, DLD1 4%, absolute IC50): 9.4 µM"
"CC(=O)N1CCC[C@]12CC=CCCCC1(CCCC=CCCCOC(=O)N3CC[C@@](C(=O)N[C@@H](Cc4ccsc4)C(=O)N[C@@H](Cc4csc5ccccc45)C(=O)N[C@@H](CCC(N)=O)C(N)=O)(C3)NC(=O)[C@H](CCO)NC(=O)[C@H](Cc3ccccc3)NC(=O)[C@H](C)NC(=O)[C@H](C)NC(=O)[C@H](CC(=O)O)NC(=O)[C@H](CC(=O)O)NC1=O)NC(=O)[C@H](CC(C)(C)C)NC(=O)[C@H](CC(=O)O)NC2=O (stereo partly drawn) [I-803, Ac-PL3-Asp-Npg-B5-Asp-Asp-Ala-Ala-Phe-Hse-PyrS2-3Thi-BztA-Gln-NH2]",,9.6,5,,,,9,9,40,2.03,
"CC(=O)N1CCC[C@]12CC=CCCCC1(CCCC=CCCCOC(=O)N3CC[C@@](C(=O)N[C@@H](Cc4ccsc4)C(=O)N[C@@H](Cc4csc5ccccc45)C(=O)N[C@@H](CCC(N)=O)C(N)=O)(C3)NC(=O)[C@H](Cc3ccccc3)NC(=O)[C@H](Cc3ccccc3)NC(=O)[C@H](C)NC(=O)[C@H](C)NC(=O)[C@H](CC(=O)O)NC(=O)[C@H](CC(=O)O)NC1=O)NC(=O)[C@H](CC(C)(C)C)NC(=O)[C@H](CC(=O)O)NC2=O (stereo partly drawn) [I-807, Ac-PL3-Asp-Npg-B5-Asp-Asp-Ala-Ala-Phe-Phe-PyrS2-3Thi-BztA-Gln-NH2]",,3.2,5,,,3.4,,5.3,24,2.27,
"CC(=O)N1CCC[C@]12CC=CCCCC1(CCCC=CCCCOC(=O)N3CC[C@@](C(=O)N[C@@H](Cc4ccsc4)C(=O)N[C@@H](Cc4csc5ccccc45)C(=O)N[C@@H](CCC(N)=O)C(N)=O)(C3)NC(=O)[C@H]([C@@H](C)O)NC(=O)[C@H](Cc3ccccc3)NC(=O)[C@H](C)NC(=O)[C@H](C)NC(=O)[C@H](CC(=O)O)NC(=O)[C@H](CC(=O)O)NC1=O)NC(=O)[C@H](CC(C)(C)C)NC(=O)[C@H](CC(=O)O)NC2=O (stereo partly drawn) [I-809, Ac-PL3-Asp-Npg-B5-Asp-Asp-Ala-Ala-Phe-Thr-PyrS2-3Thi-BztA-Gln-NH2]",,6.1,5,,,,11.3,11.7,36,2.1,
